Assay results reported in patent US7914780B1, “Aminopeptidase A (APA) targeting peptides for the treatment of cancer” (Board of Regents, the University of Texas System, priority 2000, dated 2011).
Peptide text beside a SMILES is read from it.

Experiments:
SK-RC-49/APA cells = target: T1, SK-RC-49/APA cells (Homo sapiens, UniProt Q07075); experiment: Phage binding assay on SK-RC-49/APA cells versus SK-RC-49 cells; conditions: for Phage binding to SK-RC-49/APA cells relative to SK-RC-49 cells: individual phage clones
T1 construct: stably transfected with a mammalian expression vector encoding the full-length APA cDNA; expressed in transfected cells; host or cells: SK-RC-49 renal carcinoma cells (SK-RC-49/APA)
T1 sequence (Q07075 whole entry): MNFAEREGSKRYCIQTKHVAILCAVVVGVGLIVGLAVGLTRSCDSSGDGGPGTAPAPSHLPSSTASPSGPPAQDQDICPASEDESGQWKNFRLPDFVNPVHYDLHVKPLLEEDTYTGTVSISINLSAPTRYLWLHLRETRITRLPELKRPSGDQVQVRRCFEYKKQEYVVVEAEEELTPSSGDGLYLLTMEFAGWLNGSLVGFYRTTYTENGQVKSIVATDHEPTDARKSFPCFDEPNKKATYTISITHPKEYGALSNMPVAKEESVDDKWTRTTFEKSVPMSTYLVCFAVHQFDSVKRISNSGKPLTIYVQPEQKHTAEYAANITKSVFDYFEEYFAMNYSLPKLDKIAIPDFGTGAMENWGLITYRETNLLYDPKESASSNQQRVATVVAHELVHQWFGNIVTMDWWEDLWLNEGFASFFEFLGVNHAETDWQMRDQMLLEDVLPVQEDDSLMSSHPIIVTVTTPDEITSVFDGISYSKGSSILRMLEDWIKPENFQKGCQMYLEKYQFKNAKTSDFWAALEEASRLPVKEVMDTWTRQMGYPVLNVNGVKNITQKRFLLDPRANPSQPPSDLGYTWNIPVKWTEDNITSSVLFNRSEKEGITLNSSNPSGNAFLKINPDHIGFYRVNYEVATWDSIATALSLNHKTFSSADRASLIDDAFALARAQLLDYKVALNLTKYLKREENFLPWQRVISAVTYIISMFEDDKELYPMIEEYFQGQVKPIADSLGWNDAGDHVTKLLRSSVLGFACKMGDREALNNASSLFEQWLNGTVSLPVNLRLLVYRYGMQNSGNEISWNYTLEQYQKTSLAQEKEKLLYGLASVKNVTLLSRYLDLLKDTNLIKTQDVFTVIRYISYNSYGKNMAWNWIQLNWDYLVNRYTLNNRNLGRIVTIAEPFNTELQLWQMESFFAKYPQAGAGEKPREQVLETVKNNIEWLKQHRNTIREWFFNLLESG
Experimental: Binding assays were performed on cells with 109 TU phage input. Increasing concentrations of synthetic […] (SEQ ID NO:2) or control peptides were used to evaluate competitive inhibition of phage binding. APA was immunocaptured on microtiter wells with RC38 and incubated with 109 TU of phage in 3% BSA in PBS. Wells were washed with 1% BSA, 0.01% Tween-20 in PBS and phage were recovered by infection of K91kan E. coli. Serial dilutions were plated on LB agar plates containing tetracycline and kanamycin. The number of TU was determined by bacterial colony counting.
Phage displaying enriched peptide motifs were tested individually for APA binding. Phage displaying the inserts […] (SEQ ID NO:3), […] (SEQ ID NO:1) or […] The inventors synthesized peptides containing APA-binding motifs (consensus sequence […] (SEQ ID NO:2); Table 1). Binding of phage displaying […] Binding of […] Whether the selected peptides would bind to the isolated APA protein was also evaluated. […] The inventors used phage displaying […] (SEQ ID NO:3), […] (SEQ ID NO:4), or […] (SEQ ID NO:1) in binding assays to the immunocaptured APA.

[1] = system: MDA-MB-435 human breast carcinoma-derived tumor xenografts; experiment: Tumor homing of phage in vivo; parameters: species or system nude mice; conditions: intravenous
Experimental: Nude mice bearing tumor xenografts derived from MDA-MB-435 human breast cancer cells were generated as described (Arap et al., 1998). 109 TU of […] (SEQ ID NO:8)-displaying phage or fd-tet phage were injected intravenously to anesthetized mice. Phage were allowed to circulate for 5 minutes and the animals were perfused through the left ventricle of the heart with DMEM. The tumor and control organs were dissected and equal amounts of tissue were homogenized. Homogenates were washed with ice-cold DMEM containing a protease inhibitor cocktail (Sigma; St. Louis, Mo.) and 0.1% BSA. Tissue-bound phage were recovered as described above the cell panning. Tissue samples from the injected animals were fixed, sectioned at 5 μm and stained with an anti-M13 antibody.
The inventors next evaluated the ability of APA binding peptides to home to tumor blood vessels in vivo. Phage were administered intravenously to nude mice bearing human breast carcinoma MDA-MB-435-derived xenografts. Phage homing was quantified by recovery from tissue homogenates by bacterial infection. […] […] Homing of […] (SEQ ID NO:3) phage to tumor vasculature was confirmed by immunohistochemical staining of phage on tissue sections.

[2] = target: T2, APA-transfected SK-RC-49 cells (Homo sapiens, UniProt Q07075); experiment: Cell surface panning of CX3CX3CX3C phage display library on APA-transfected cells; assay type: binding; conditions: for Round 2 (%) - share of randomly selected phage clones displaying the sequence: after second round of panning on SK-RC-49/APA cells
T2 construct: stably transfected with a mammalian expression vector encoding the full-length APA cDNA; expressed in transfected cells; host or cells: SK-RC-49 renal carcinoma cells (SK-RC-49/APA)
T2 sequence (Q07075 whole entry): as above
Experimental: Briefly, 10^10 transducing units (TU) of a CX3CX3CX3C (SEQ ID NO:14; C, cysteine; X, any amino acid residue) phage display random library are pre-absorbed on SK-RC-49 parental cells. The pre-cleared CX3CX3CX3C phage library (˜10^10 TU) is added to 106 detached APA-transfected SK-RC-49 cells in binding medium (20 mM HEPES, 2% FCS in DMEM). Cell panning was performed at 4° C. to minimize post-binding events such as receptor-mediated internalization (Giordano et al., 2001). Cells were washed with binding medium and cell bound phage were recovered and amplified by infection of K91Kan E. coli. Serial dilutions were plated on Luria-Bertani (LB) agar plates with tetracycline and kanamycin. The number of TU was determined by bacterial colony counting.
The inventors pre adsorbed 1010 transducing units (TU) of a CX3CX3CX3C (C, cysteine; X, any amino acid residue; SEQ ID NO:14) phage display random library on SK-RC-49 parental cells. Next, the pre-cleared CX3CX3CX3C (SEQ ID NO:14) phage library (˜1010 TU) was added to 106 detached APA-transfected SK-RC-49 cells in binding medium (20 mM HEPES, 2% FCS in DMEM). Cell panning was performed at 4° C. to minimize post-binding events such as receptor-mediated internalization (Giordano et al., 2001). Cells were washed with binding medium and cell bound phage were recovered and amplified by infection of K91 Kan E. coli. Serial dilutions were plated on Luria-Bertani (LB) agar plates with tetracycline and kanamycin. The number of TU was determined by bacterial colony counting.
To identify peptides capable of binding to APA, the inventors screened APA-transfected cells with a phage display library (Smith and Scott, 1993). The inventors stably transfected SK-RC-49 renal carcinoma cells with a vector expressing full-length APA cDNA. APA functionality was verified in transfected cells by an enzyme activity assay specific for APA.

[3] = system: VEGF-induced CAM neovascularization; experiment: Chick embryo chorioallantoic membrane (CAM) assay; assay type: in vivo, chicken
Experimental: Fertilized chicken eggs were incubated in constant humidity at 37° C. for 3 days. Two to three ml of albumin was removed through a square opening to detach the developing CAM. The opening was sealed with a glass plate and the eggs were incubated for 5 days. […] […] CAMs were examined daily until day 12, photographed in ovo with a stereomicroscope and emerging capillaries were counted (Ribatti et al., 1997).
In this in vivo model, neovascularization is stimulated with VEGF adsorbed on to a gelatin sponge placed on the CAM. […] CAMs were examined on E12 and neovascularization was quantified by counting the number of emerging capillaries (FIG. 4B). Significant induction of neovascularization (57.0±1.41 blood vessels) was found when a sponge with VEGF was placed on the CAM compared to a sponge with no growth factors (12.0±2.8 blood vessels; t-test, P<0.01). […]

HMECs [4] = experiment: Chemotaxic (Boyden chamber) cell migration assay; assay type: cell-based, human
Experimental: Cell migration assays were performed in a 48-well Boyden chamber (NeuroProbe; Gaithersburg, Md.) as described (Bussolino et al., 1995). Indicated concentrations of […] (SEQ ID NO:2) peptide or negative control peptide (1 mM) were placed in the lower chamber compartment in complete M199 medium. Subconfluent HMECs were harvested and 1×10^5 cells were seeded in the upper chamber compartment in complete M199 medium. Cells were allowed to migrate for 5 h at 37° C. in a humidified 5% CO2 atmosphere. Filter was removed and cells on the upper side were scraped off. Migrated cells were fixed and Giemsa-stained.
(§1) Because of the enzymatic inhibitory activity of APA-binding peptides, the inventors reasoned that they might affect endothelial cell function. The inventors correlated the effect of APA inhibition by the […] (SEQ ID NO:2) peptide on the migration and proliferation of endothelial cells. The inventors used human dermal microvascular endothelial cells (HMEC) in which the APA expression was verified by immunostaining with RC38 and the APA activity by its specific enzyme assay. […] (SEQ ID NO:2) peptide suppressed the migration of HMECs in the Boyden chamber assay (FIG. 3B). Suppression in cell migration was dose-dependent and commensurate with inhibition of APA enzymatic activity. […] Similarly, proliferation of HMECs was suppressed by […] (SEQ ID NO:2) (˜40% at 1 mM) in a dose-dependent manner (FIG. 3C).

HMECs [5] = experiment: Endothelial cell growth assay (crystal violet); assay type: cell-based, human
Experimental: HMECs were seeded (˜10,000 cells/well) and allowed to attach for 24 hours in complete M199 medium (Sigma; St. Louis, Mo.). The indicated concentrations of […] (SEQ ID NO:2) or 1 mM negative control peptide were added to the cells in complete M199 medium. HMECs were then serially fixed in 2.5% glutaraldehyde, stained with 0.1% crystal violet in 20% methanol, and solubilized in 10% acetic acid. Cell growth was evaluated by measuring absorbance at 590 nm. A calibration curve with linear correlation between absorbance and cell number (103-105 HMECs) was used for the assay.
as §1

aminopeptidase N = aminopeptidase N (Homo sapiens, UniProt P15144); experiment: Aminopeptidase N enzymatic activity; assay type: biochemical
Chain of aminopeptidase N (P15144 whole entry, species assumed): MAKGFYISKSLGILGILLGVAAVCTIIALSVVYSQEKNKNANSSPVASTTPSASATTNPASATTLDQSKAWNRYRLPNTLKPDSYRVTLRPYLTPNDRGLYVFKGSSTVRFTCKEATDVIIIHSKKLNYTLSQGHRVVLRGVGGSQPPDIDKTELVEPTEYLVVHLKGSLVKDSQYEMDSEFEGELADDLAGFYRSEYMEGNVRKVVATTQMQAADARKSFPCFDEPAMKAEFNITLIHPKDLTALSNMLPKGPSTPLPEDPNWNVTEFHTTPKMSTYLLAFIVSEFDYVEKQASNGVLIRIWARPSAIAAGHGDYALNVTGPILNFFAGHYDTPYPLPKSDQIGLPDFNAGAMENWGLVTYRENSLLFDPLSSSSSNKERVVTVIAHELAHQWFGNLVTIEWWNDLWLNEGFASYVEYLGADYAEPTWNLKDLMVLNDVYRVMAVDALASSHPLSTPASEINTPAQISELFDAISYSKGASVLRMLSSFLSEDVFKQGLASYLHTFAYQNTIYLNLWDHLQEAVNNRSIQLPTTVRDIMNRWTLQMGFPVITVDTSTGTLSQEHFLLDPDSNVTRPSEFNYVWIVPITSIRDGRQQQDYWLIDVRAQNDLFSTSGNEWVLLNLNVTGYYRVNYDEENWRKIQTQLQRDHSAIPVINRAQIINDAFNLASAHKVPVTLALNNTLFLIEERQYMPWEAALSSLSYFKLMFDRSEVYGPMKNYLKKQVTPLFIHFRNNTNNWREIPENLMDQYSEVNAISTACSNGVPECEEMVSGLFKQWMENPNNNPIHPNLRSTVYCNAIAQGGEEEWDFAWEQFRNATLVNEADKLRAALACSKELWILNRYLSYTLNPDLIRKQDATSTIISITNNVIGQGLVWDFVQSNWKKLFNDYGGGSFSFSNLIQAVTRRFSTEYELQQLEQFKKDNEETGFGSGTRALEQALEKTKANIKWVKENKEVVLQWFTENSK

HMECs [6] = experiment: Three-dimensional cell culture on Matrigel (cord/tube formation); assay type: cell-based, human
Experimental: Matrigel (BD Biosciences; Bedford, Mass.) was added to 48-well tissue culture plates and allowed to solidify at 37° C. HMECs (˜10^4 cells) were added to the wells and allowed to adhere to the Matrigel for 30 minutes at 37° C. Cell medium was replaced containing the indicated concentrations of […] (SEQ ID NO:2) or a negative control peptide (both at 1 mM) in complete medium. Plates were examined and photographed after 16 hours.
To determine whether inhibition of APA enzyme activity with […] (SEQ ID NO:2) peptide would affect angiogenesis, the effect of the peptide was tested in vitro and in vivo. First, the inventors evaluated the ability of HMECs to differentiate into capillary-like structures characteristic of angiogenesis in the presence of […] (SEQ ID NO:2) on a gel of reconstituted basement membrane matrix (Matrigel). The formation of cord/tube-like structures was progressively impaired by increasing concentrations of […] (SEQ ID NO:2) peptide, relative to the network formation in controls without peptide (FIG. 4A, upper left panel) or with an unrelated control peptide at 1 mM concentration (FIG. 4A, upper right panel). The number and length of capillary-like branching structures was reduced at 0.3 mM […] […]

EF43-fgf4-derived tumors = experiment: Experimental therapy of EF43-fgf4-derived tumors; assay type: in vivo, Balb/c mice
Experimental: For experimental therapy, Balb/c mice bearing EF43-fgf4-derived tumors were established and tumor volumes determined as described (Deroanne et al., 1997; Hajitou et al., 2001). Treatments in tumor-bearing mice were started 5 (peptides) to 7 days (antibodies) after cell inoculation (10^5 cells/mouse). Reagents were administered by ip and sc routes.
Tumor-bearing mice received vehicle, [sequence] (SEQ ID NO:2) or control peptides and tumors were monitored (FIG. 7B).
The inventors used an established regimen of two anti-APA monoclonal antibodies (ASD-37/41) with synergistic APA inhibitory properties (Assmann et al., 1992, Mentzel et al., 1999) on the same animal model. Tumor-bearing mice received vehicle, ASD-37/41, or isotype control IgG and tumors were monitored (FIG. 7C).

[7] = competition with synthetic peptide
[8] = 1 mM peptide in VEGF-adsorbed sponge, E12
[9] = negative control peptide (1 mM)

Compound: CPKVCPRECESNC (phage-displayed)
- Effect of synthetic […] peptide on phage binding to SK-RC-49/APA cells (SK-RC-49/APA cells; [7]): inhibited by the synthetic peptide
- Phage binding to SK-RC-49/APA cells relative to SK-RC-49 cells (SK-RC-49/APA cells): preferentially bound to SK-RC-49/APA cells
- Phage homing by recovery from tissue homogenates ([1]; tumor versus control organs (brain)): enriched in tumors compared to control organs
- Phage homing by immunohistochemical staining of tissue sections ([1]; tumor versus normal brain blood vessels): Strong phage staining was observed in tumor blood vessels
- Round 2 (%) - share of randomly selected phage clones displaying the sequence [2]: 5%

Compound: CSMMCLEGCDDWC (phage-displayed)
- Round 2 (%) - share of randomly selected phage clones displaying the sequence [2]: 5%

Compound: CC[C@H](C)[C@H](NC(=O)[C@H](CO)NC(=O)[C@H](CCC(=O)O)NC(=O)[C@H](CS)NC(=O)[C@H](CCC(=O)O)NC(=O)[C@H](CCCNC(=N)N)NC(=O)[C@@H]1CCCN1C(=O)[C@@H](N)CS)C(=O)N[C@@H](CS)C(=O)O (H-CPRECESIC-OH)
- Effect on number or branching of the growing blood vessels ([3]; 0.1 mM and 0.3 mM peptide): did not affect
- Inhibition of VEGF-induced CAM neovascularization [3, 8]: 40%
- Number of emerging capillaries [3, 8]: 35.5±1.4 blood vessels
- Inhibition of cell migration (HMECs [4]; 100 μM peptide): significant inhibition
- Suppression in cell migration (HMECs [4]; 1 mM peptide, 5 h): Up to 60%
- Inhibition of cell proliferation (HMECs [5]; 0.3 mM peptide): Inhibition of cell proliferation was also observed
- Suppression of proliferation of HMECs (HMECs [5]; 1 mM peptide): ~40%
- Effect on cell proliferation (HMECs [5]; peptide concentrations lower than 0.3 mM): no significant effect
- Effect on enzymatic activity of aminopeptidase N (aminopeptidase N): did not affect
- Number and length of capillary-like branching structures (HMECs [6]; 0.3 mM peptide): reduced
- Cell interconnections and capillary network organization (HMECs [6]; 1 mM peptide): severely lost
- Tumor volume (EF43-fgf4-derived tumors; peptides 250 μg/mouse/dose, end of two weeks): 1,366±190 mm^3

Compound: CAVACWADCQLGC
- Round 2 (%) - share of randomly selected phage clones displaying the sequence [2]: 5%

Compound: GACVRLSACGA [negative control peptide, unrelated synthetic peptide used as a negative control unless otherwise indicated, reference compound]
- Number of emerging capillaries [3, 8]: 56.5±2.12 blood vessels
- Effect on cell migration (HMECs [4]; [9]): affected neither cell migration nor proliferation
- Effect on cell proliferation (HMECs [5]; [9]): affected neither cell migration nor proliferation

Compound: CYNLCIRECESICGADGACWTWCADGCSRSC (phage-displayed)
- Effect of synthetic CPRECESIC peptide on phage binding to SK-RC-49/APA cells (SK-RC-49/APA cells; [7]): inhibited by the synthetic peptide
- Phage binding to SK-RC-49/APA cells relative to SK-RC-49 cells (SK-RC-49/APA cells): preferentially bound to SK-RC-49/APA cells
- Round 2 (%) - share of randomly selected phage clones displaying the sequence [2]: 50%
- Round 3 (%) - share of randomly selected phage clones displaying the sequence ([2]; after third round of panning on SK-RC-49/APA cells): 100%

Compound: CLGQCASICVNDC
- Effect of synthetic […] peptide on phage binding to SK-RC-49/APA cells (SK-RC-49/APA cells; [7]): not affected by the synthetic peptide
- Phage binding to SK-RC-49/APA cells relative to SK-RC-49 cells (SK-RC-49/APA cells): preferentially bound to SK-RC-49/APA cells
- Round 2 (%) - share of randomly selected phage clones displaying the sequence [2]: 5%

Compound: CSGLCTVQCLEGC (phage-displayed)
- Round 2 (%) - share of randomly selected phage clones displaying the sequence [2]: 5%

Compound: CGTGCAVECEVVC
- Round 2 (%) - share of randomly selected phage clones displaying the sequence [2]: 5%

Compound: CPRECESN
- Efficacy in vivo (EF43-fgf4-derived tumors; mouse, in vivo): showed efficacy in vivo
